# Assay results: patent US20210010089A1, “TUMOR MINIMAL RESIDUAL DISEASE STRATIFICATION” (VIB VZW, priority 2018, published 2021)
# Legend:
# [1] = tested on: GFRA2-positive MEL006 cells; experiment: FACS of GFRA2-positive cells (NDTCs) in MEL006 cultures
# Method: Cells were resuspended in FACS sorting buffer (culture medium supplied with 1% EDTA 100 mM).
# MM052 melanoma cells = experiment: Colony assay and Cell Titer Glo assay in short culture melanoma line
# Method: Cells were grown to near confluency on 12well plates and treated with the indicated drug combinations for the indicated time period.
# 2500 cells were plated onto a 96well plate and treated with the indicated drug combinations for the indicated time period. Cell Titer Glo assay was performed according to the manufacturer's instruction (Promega) and luminescence was measured on a VictorX3 (Perkin Elmer).
# RAR = details: pan-RXR agonist; cited from earlier work
# wild-type cells (MM163) = experiment: GFRA2 expression (RT-qPCR) in short-term melanoma culture; type: cell-based, human; details: triple wild-type culture exposed to both trametinib and bexarotene
# Text: C) wild-type cells (MM163).
# [2] = tested on: NRAS-mutant cells (MM165); experiment: as above; details: NRAS-mutant culture exposed to both trametinib and bexarotene
# Text: Cells resuspended in QiAzol using an miRNeasy Kit and processed according to the manufacturer's instructions (QIAGEN) or in RA1lysis buffer using the RNA NucleoSpin extraction kit (Macherey&Nagel).
# Data processing with qbase+2.6 software (Biogazelle) relies on normalization with a minimum of 2 reference genes, indicated as RefGen below.
# [3] = tested on: MRD subpopulation gene signatures; experiment: Analysis of available RNASeq data of melanoma patients on immunotherapy (Riaz et al. 2017); set-up: species or system human; details: patient subgroups SD+PD versus CR+PR; results not shown
# Text: Although the therapy selecting for these 4 MRD-stage subpopulations as applied in the Examples herein relies on combined inhibition of BRAF and MEK kinases, it can be envisaged that other therapeutic modalities also give rise to the emergence of the same or some of these 4 MRD-stage subpopulations. […] Likewise, targeted therapies of cancers other than melanoma can lead to a MRD phase during which one or more of the MRD subpopulations as identified herein for melanoma are present. Such targeted therapies include e.g. anti-VEGF (bevacizumab), anti-EGFR (cetuximab, erlotinib), mTOR inhibition (everolimus), Tyr-kinase inhibitor/anti-EGFR (gefitinib), Tyr-kinase inhibition/BCR-ABL inhibition (imatinib), anti-HER2/anti-EGFR (lapatinib), and Tyr-kinase inhibition (sorafenib, sunitinib). On the one hand, as described above, different therapies targeting melanoma can be expected to induce all or part of the minimal residual disease tumor subpopulations as described herein. On the other hand, it can be envisaged that inhibition of the MAPK-pathway (with BRAF and/or MEK inhibitors) is inducing in cancers or tumors different from melanoma one or more minimal residual disease tumor subpopulations as described herein for melanoma.
molecule,measurement,setting,value
CN1c2ccc([N+](=O)[O-])cc2N=C(c2ccc(C(=O)O)cc2)c2cc3c(cc21)C(C)(C)CCC3(C)C [HX531],drug-dependent induction of GFRA2-positive cells,[1]; in presence of IC50 concentrations of the BRAF and MEK-inhibitors,completely inhibited emergence of drug-dependent induction of GFRA2-positive cells
same,effect on sensitivity of MM52 cells to trametinib,"MM052 melanoma cells; HX531 2 uM, trametinib 2 nM, colony assay 7 days, Cell Titer Glo 6 days",sensitized these cells to trametinib
CN(c1ncccc1CNc1nc(Nc2ccc3c(c2)CC(=O)N3)ncc1C(F)(F)F)S(C)(=O)=O [PF-562271],drug-dependent emergence of the GFRA2-high cell population,[1]; FAK inhibitor added to DT-treated MEL006 cells,diminished the drug-dependent emergence of the GFRA2-high cell population in a dose-dependent manner
CC1(C)CCC(C)(C)c2cc(C3(c4ccc(C(=O)O)cc4)OCCO3)ccc21 [SR 11237],RAR activity,RAR,devoid of any RAR activity
C=C(c1ccc(C(=O)O)cc1)c1cc2c(cc1C)C(C)(C)CCC2(C)C [bexarotene],GFRA2 expression levels,wild-type cells (MM163),increase
same,GFRA2 expression levels,[2],increase
same,effect on sensitivity to a combination of trametinib/FAK-inhibitors,MM052 melanoma cells; MM52 cells,increased the sensitivity
same,long-term growth inhibition,"MM052 melanoma cells; MM52 culture, compound alone",did not induce measurable long-term growth inhibition
same,cells in which cell death occurred,"MM052 melanoma cells; bexarotene with trametinib/FAK-inhibitors, after 3 days of treatment (data not shown)",~100%
same,effect on sensitivity of MM52 cells to trametinib,MM052 melanoma cells; concentrations as low as 10 nM,significantly decreased the sensitivity
nivolumab: PD-1 inhibitor,induction of MRD subpopulations (trend),[3],induce at least the pigmented state and MITFmedium-hypometabolic state MRD subpopulations
